Source: US8546401B2, “5,6-disubstituted oxindole-derivatives and use thereof for treating vasopressin-dependent diseases” (AbbVie Deutschland GmbH & Co. KG, priority 2007, dated 2013)

What was measured:
[1] = target: T1, human vasopressin V1b receptor (Homo sapiens, UniProt P47901); experiment: Vasopressin V1b receptor binding assay; conditions: CHO-K1 membranes, 3H-AVP displacement
T1 construct: expressed in transfected cells; host or cells: CHO-K1 (cell line hV1b_3H2_CHO), membrane preparation
T1 sequence (P47901 1-424): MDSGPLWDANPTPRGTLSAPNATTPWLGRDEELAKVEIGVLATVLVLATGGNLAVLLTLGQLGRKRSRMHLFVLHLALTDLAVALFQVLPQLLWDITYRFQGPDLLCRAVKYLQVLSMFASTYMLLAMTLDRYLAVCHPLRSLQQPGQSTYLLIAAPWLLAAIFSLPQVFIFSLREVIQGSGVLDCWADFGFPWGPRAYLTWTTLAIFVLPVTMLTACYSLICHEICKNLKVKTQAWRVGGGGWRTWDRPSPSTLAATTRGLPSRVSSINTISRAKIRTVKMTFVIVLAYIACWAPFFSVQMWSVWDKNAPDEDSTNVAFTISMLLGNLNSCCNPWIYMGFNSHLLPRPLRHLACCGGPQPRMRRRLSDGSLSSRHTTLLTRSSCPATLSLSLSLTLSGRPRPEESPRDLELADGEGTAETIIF
Protocol: 1. Vasopressin V1b Receptor Binding Assay:
The test substances were dissolved in a concentration of 10^−2 M in DMSO and further diluted to 5×10^−4 M to 5×10^−3 M. These serial DMSO predilutions were diluted 1:10 with assay buffer. The substance concentration was further diluted 1:5 in the assay mixture (2% DMSO in the mixture).
(§1) CHO-K1 cells with stably expressed human vasopressin V1b receptor (clone 3H2) were harvested and homogenized in 50 mM Tris-HCl and in the presence of protease inhibitors (Roche complete Mini #1836170) using a Polytron homogenizer at intermediate setting for 2×10 seconds, and subsequently centrifuged at 40 000×g for 1 h. The membrane pellet was again homogenized and centrifuged as described and subsequently taken up in 50 mM Tris-HCl, pH 7.4, homogenized and stored in aliquots frozen in liquid nitrogen at −190° C.
(§2) The binding assay was carried out by the method based on that of Tahara et al. (Tahara A et al., Brit. J. Pharmacol. 125, 1463-1470 (1998)).
(§3) The incubation buffer was: 50 mM Tris, 10 mM MgCl2, 0.1% BSA, pH 7.4.
In the assay mixture (250 μl), membranes (50 μg/ml protein in incubation buffer) from CHO-K1 cells with stably expressed human V1b receptors (cell line hV1b—3H2_CHO) were incubated with 1.5 nM ^3H-AVP (8-Arg-vasopressin, PerkinElmer #18479) in incubation buffer (50 mM Tris, 10 mM MgCl2, 0.1% BSA, pH 7.4) (total binding) or additionally with increasing concentrations of test substance (displacement experiment). The nonspecific binding was determined with […] (Bachem #H1780). All determinations were carried out as triplicate determinations. After incubation (60 minutes at room temperature), the free radioligand was filtered off by vacuum filtration (Skatron cell harvester 7000) through Wathman GF/B glass fiber filter mats, and the filters were transferred into scintillation vials. The liquid scintillation measurement took place in a model 2000 or 2200CA Tricarb instrument (Packard). Conversion of the measured cpm into dpm was carried out with the aid of a standard quench series.
(§4) The binding parameters were calculated by nonlinear regression in SAS. The algorithms of the program operate in analogy to the LIGAND analysis program (Munson P J and Rodbard D, Analytical Biochem. 107, 220-239 (1980)). The Kd of ^3H-AVP for the recombinant human V1b receptors is 0.4 nM and was used to determine the Ki.

[2] = target: T2, human vasopressin V1a receptor (Homo sapiens, UniProt P37288); experiment: Vasopressin V1a receptor binding assay; conditions: selectivity quotient, human receptors
T2 construct: expressed in transfected cells; host or cells: CHO-K1 (cell line hV1a_5_CHO), membrane preparation
T2 sequence (P37288 whole entry): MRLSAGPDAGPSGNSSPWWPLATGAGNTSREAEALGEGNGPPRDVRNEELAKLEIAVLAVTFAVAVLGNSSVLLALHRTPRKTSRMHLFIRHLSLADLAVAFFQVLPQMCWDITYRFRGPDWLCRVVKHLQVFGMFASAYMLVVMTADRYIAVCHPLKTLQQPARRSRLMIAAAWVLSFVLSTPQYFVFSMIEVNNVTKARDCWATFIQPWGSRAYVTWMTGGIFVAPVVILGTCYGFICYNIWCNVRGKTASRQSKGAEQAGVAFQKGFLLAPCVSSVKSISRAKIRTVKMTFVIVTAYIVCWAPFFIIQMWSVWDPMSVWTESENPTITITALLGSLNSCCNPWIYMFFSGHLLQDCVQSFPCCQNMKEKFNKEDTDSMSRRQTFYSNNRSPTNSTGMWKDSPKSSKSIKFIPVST
Protocol: 2. Vasopressin V1a Receptor Binding Assay:
The test substances were dissolved in a concentration of 10^−2 M in DMSO. Further dilution of these DMSO solutions took place in incubation buffer (50 mM Tris, 10 mM MgCl2, 0.1% BSA, pH 7.4).
as §1, with “V1a” for “V1b”, “5)” for “3H2)”
as §2, §3
In the assay mixture (250 μl), membranes (20 μg/ml protein in incubation buffer) from CHO-K1 cells with stably expressed human V1a receptors (cell line hV1a—5_CHO) were incubated with 0.04 nM ^125I-AVP (8-Arg-vasopressin, NEX 128) in incubation buffer (50 mM Tris, 10 mM MgCl2, 0.1% BSA, pH 7.4) (total binding) or additionally with increasing concentrations of test substance (displacement experiment). The nonspecific binding was determined with 1 μM AVP (Bachem #H1780). Triplicate determinations were carried out.
After incubation (60 minutes at room temperature), the free radioligand was filtered off by vacuum filtration (Skatron cell harvester 7000) through Wathman GF/B glass fiber filter mats, and the filters were transferred into scintillation vials.
The liquid scintillation measurement took place in a model 2000 or 2200CA Tricarb instrument (Packard). Conversion of the measured cpm into dpm was carried out with the aid of a standard quench series.
as §4, with “^125I-AVP” for “^3H-AVP”, “hV1a” for “human V1b”, “was determined in saturation experiments. A Kd of 1.33” for “is 0.4”, “nM” for “nM and”

[3] = target: T3, human oxytocin receptors (Homo sapiens, UniProt P30559); experiment: Oxytocin receptor binding assay; conditions: selectivity quotient
T3 construct: expressed in transfected cells; host or cells: HEK-293, transient expression; lysed and homogenized cells
T3 sequence (P30559 1-389): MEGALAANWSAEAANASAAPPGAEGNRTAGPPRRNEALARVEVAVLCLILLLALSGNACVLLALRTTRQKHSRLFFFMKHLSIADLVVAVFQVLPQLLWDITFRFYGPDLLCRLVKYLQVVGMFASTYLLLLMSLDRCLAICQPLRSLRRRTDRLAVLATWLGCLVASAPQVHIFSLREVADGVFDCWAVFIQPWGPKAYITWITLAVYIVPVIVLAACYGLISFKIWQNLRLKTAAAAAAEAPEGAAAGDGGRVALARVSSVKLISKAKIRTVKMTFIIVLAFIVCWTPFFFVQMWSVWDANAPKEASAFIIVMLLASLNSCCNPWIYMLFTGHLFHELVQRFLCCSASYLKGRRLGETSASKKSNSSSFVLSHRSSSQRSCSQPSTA
Protocol: 4. Oxytocin Receptor Binding Assay
The substances were dissolved in a concentration of 10^−2 M in DMSO and diluted with incubation buffer (50 mM Tris, 10 mM MgCl2, 0.1% BSA, pH 7.4).
Confluent HEK-293 cells with transiently expressing recombinant human oxytocin receptors were centrifuged at 750×g at room temperature for 5 minutes. The residue was taken up in ice-cold lysis buffer (50 mM Tris-HCl, 10% glycerol, pH 7.4 and Roche complete protease inhibitor) and subjected to an osmotic shock at 4° C. for 20 minutes. The lyzed cells were then centrifuged at 750×g at 4° C. for 20 minutes, the residue was taken up in incubation buffer, and aliquots of 10^7 cells/ml were prepared. The aliquots were frozen at −80° C. until used.
On the day of the experiment, the cells were thawed, diluted with incubation buffer and homogenized using a Multipette Combitip (Eppendorf, Hamburg). The reaction mixture of 0.250 ml was composed of 2 to 5×10^4 recombinant cells, 3-4 nM ^3H-oxytocin (PerkinElmer, NET 858) in the presence of test substance (inhibition plot) or only incubation buffer (total binding). The nonspecific binding was determined with 10^−6 M oxytocin (Bachem AG, H2510). Triplicate determinations were set up. Bound and free radioligand were separated by filtration under vacuum with Whatman GF/B glass fiber filters with the aid of a Skatron cell harvester 7000. The bound radioactivity was determined by liquid scintillation measurement in a Tricarb Beta counter, model 2000 or 2200CA (Packard).
The binding parameters were calculated by nonlinear regression analysis (SAS) in analogy to the LIGAND program of Munson and Rodbard (Analytical Biochem 1980; 107: 220-239). The Kd of ^3H-oxytocin for the recombinant hOT receptors is 7.6 nM and was used to determine the Ki.

Compound | Ki [1] | Ki(h − V1a)/Ki(h − V1b)* [2] | Ki(h − OT)/Ki(h − V1b)* [3]
CCOc1ncccc1C1(NC(=O)N2CCN(C3CCN(C)CC3)CC2)C(=O)N(S(=O)(=O)c2ccc(OC)cc2OC)c2cc(F)c(Cl)cc21 (stereo not drawn) [Example 19, 4-(1-Methylpiperidin-4-yl)piperazine-1-[5-chloro-1-(2,4-dimethoxyphenylsulfonyl)-3-(2-ethoxypyridin-3-yl)-6-fluoro-2-oxo-2,3-dihydro-1H-indol-3-yl]carboxamide] | < 1 nM | ++ (25-75) | ++ (25-75)
CCOc1ncccc1C1(NC(=O)N2CCN(C3CCN(C)CC3)CC2)C(=O)N(S(=O)(=O)c2ccccc2)c2cc(F)c(Cl)cc21 (stereo not drawn) [Example 20, 4-(1-Methylpiperidin-4-yl)piperazine-1-[1-phenylsulfonyl-5-chloro-3-(2-ethoxypyridin-3-yl)-6-fluoro-2-oxo-2,3-dihydro-1H-indol-3-yl]carboxamide] | 1 to 10 nM | + (10-<25) | ++ (25-75)
CCOc1ncccc1C1(NC(=O)N2CCN(C3CCN(CC)CC3)CC2)C(=O)N(S(=O)(=O)c2ccc(OC)cc2OC)c2cc(F)c(Cl)cc21 (stereo not drawn) [Example 21, 4-(1-Ethylpiperidin-4-yl)piperazine-1-[5-chloro-1-(2,4-dimethoxyphenylsulfonyl)-3-(2-ethoxypyridin-3-yl)-6-fluoro-2-oxo-2,3-dihydro-1H-indol-3-yl]carboxamide] | < 1 nM | ++ (25-75) | +++ (>75)
CCOc1ncccc1C1(NC(=O)N2CCN(C3CCN(CC)CC3)CC2)C(=O)N(S(=O)(=O)c2ccccc2)c2cc(F)c(Cl)cc21 (stereo not drawn) [Example 22, 4-(1-Ethylpiperidin-4-yl)piperazine-1-[1-phenylsulfonyl-5-chloro-3-(2-ethoxypyridin-3-yl)-6-fluoro-2-oxo-2,3-dihydro-1H-indol-3-yl]carboxamide] | 1 to 10 nM | + (10-<25) | +++ (>75)
CCOc1ncccc1C1(NC(=O)N2CCC(N3CCN(C)CC3)CC2)C(=O)N(S(=O)(=O)c2ccc(OC)cc2OC)c2cc(F)c(Cl)cc21 (stereo not drawn) [Example 23, 4-(4-Methylpiperazin-1-yl)piperidine-1-[5-chloro-1-(2,4-dimethoxyphenylsulfonyl)-3-(2-ethoxypyridin-3-yl)-6-fluoro-2-oxo-2,3-dihydro-1H-indol-3-yl]carboxamide] | < 1 nM | + (10-<25) | +++ (>75)
CCOc1ncccc1C1(NC(=O)N2CCC(C3CCN(C)CC3)CC2)C(=O)N(S(=O)(=O)c2ccc(OC)cc2OC)c2cc(F)c(Cl)cc21 (stereo not drawn) [Example 26, 1′-Methyl[4,4′]bipiperidinyl-1-[5-chloro-1-(2,4-dimethoxyphenylsulfonyl)-3-(2-ethoxy-pyridin-3-yl)-6-fluoro-2-oxo-2,3-dihydro-1H-indol-3-yl]carboxamide] | < 1 nM | + (10-<25) | +++ (>75)
CCOc1ncccc1C1(NC(=O)N2CCN(C3CCN(C)CC3)CC2)C(=O)N(S(=O)(=O)c2ccc(OC)cc2OC)c2cc(F)c(F)cc21 (stereo not drawn) [Example 31, 4-(1-Methylpiperidin-4-yl)piperazine-1-[1-(2,4-dimethoxyphenylsulfonyl)-3-(2-ethoxy-pyridin-3-yl)-5,6-difluoro-2-oxo-2,3-dihydro-1H-indol-3-yl]carboxamide] | 10 to 100 nM | +++ (>75) | + (10-<25)
CCOc1ncccc1C1(NC(=O)N2CCN(C3CCN(CC)CC3)CC2)C(=O)N(S(=O)(=O)c2ccc(OC)cc2OC)c2cc(F)c(F)cc21 (stereo not drawn) [Example 33, 4-(1-Ethylpiperidin-4-yl)piperazine-1-[1-(2,4-dimethoxyphenylsulfonyl)-3-(2-ethoxy-pyridin-3-yl)-5,6-difluoro-2-oxo-2,3-dihydro-1H-indol-3-yl]carboxamide] | 1 to 10 nM | +++ (>75) | +++ (>75)
